Test results as given in ChEMBL document CHEMBL1140953, “Anthracene based compounds as new L-type Ca2+ channel blockers: design, synthesis, and full biological profile” (J Med Chem, 2009).
pIC50: −log10 of the molar value. Active and inactive are the calls of the source. The calls are words filed in the database; no cut-off is given here.

Legend:
Rattus norvegicus [1] = species on record: Rattus norvegicus; experiment: Vasorelaxant activity in Sprague-Dawley rat caudal artery ring assessed as reduction of phenylephrine-induced muscle contractions at 50 uM in Ca2+-free physiological salt solution; assay type: functional, tissue-based
Rattus norvegicus [2] = species on record: Rattus norvegicus; experiment: Vasorelaxant activity in Sprague-Dawley rat caudal artery ring assessed as reduction of caffeine-induced muscle contractions at 50 uM; assay type: functional, tissue-based
[3] = target: T1, Voltage-gated L-type calcium channel (Rattus norvegicus, UniProt P22002+Q02485+P27732); experiment: Inhibition of L-type calcium channel in Sprague-Dawley rat caudal artery smooth muscle cells at 15 uM by whole cell patch clamp method at -50 mV voltage
[4] = (§1) Displacement of (-)-[3H]devapamil from L-type calcium channel in rabbit skeletal muscle cells; design: species or system Oryctolagus cuniculus
[5] = Vasorelaxant activity in Sprague-Dawley rat caudal artery ring assessed as reduction of KCl-induced muscle contractions at 50 uM relative to control; assay type: functional; design: scale not given: the % may be the effect or the level left
[6] = Displacement of (+)-[3H]isradipine from L-type calcium channel in rabbit skeletal muscle cells; design: species or system Oryctolagus cuniculus
[7] = target: T1, Voltage-gated L-type calcium channel; experiment: Inhibition of L-type calcium channel in Sprague-Dawley rat caudal artery smooth muscle cells assessed as decrease in amplitude at 15 uM by whole cell patch clamp method; settings: TDE = time-dependent effect
[8] = target: Voltage-dependent L-type calcium channel subunit alpha-1C (Mus musculus, UniProt Q01815); experiment: Inhibition of mouse brain L-type Cav1.2 channel by radioligand binding assay
[9] = target: T1, Voltage-gated L-type calcium channel; experiment: Inhibition of L-type calcium channel in Sprague-Dawley rat caudal artery smooth muscle cells at 15 uM by whole cell patch clamp method at 2 Hz
Rattus norvegicus [10] = species on record: Rattus norvegicus; experiment: Vasorelaxant activity in Sprague-Dawley rat caudal artery ring assessed as reduction of caffeine-induced muscle contractions at 50 uM in Ca2+-free physiological salt solution; assay type: functional, tissue-based
[11] = target: T1, Voltage-gated L-type calcium channel; experiment: Inhibition of L-type calcium channel in Sprague-Dawley rat caudal artery smooth muscle cells by whole cell patch clamp method
[12] = target: T1, Voltage-gated L-type calcium channel; experiment: Inhibition of L-type calcium channel in Sprague-Dawley rat caudal artery smooth muscle cells assessed as inhibition of peak inward current at 15 uM by whole cell patch clamp method at -20 to 40 mV voltage
[13] = target: T1, Voltage-gated L-type calcium channel; experiment: Inhibition of L-type calcium channel in Sprague-Dawley rat caudal artery smooth muscle cells at 15 uM by whole cell patch clamp method at 4 Hz
Oryctolagus cuniculus = species on record: Oryctolagus cuniculus; experiment: as §1; settings: concentration not given here
[14] = Displacement of (-)-[3H]devapamil from L-type calcium channel in rabbit smooth skeletal cells relative to verapamil

Voltage-dependent L-type calcium channel subunit alpha-1C, sequence (Q01815 whole entry): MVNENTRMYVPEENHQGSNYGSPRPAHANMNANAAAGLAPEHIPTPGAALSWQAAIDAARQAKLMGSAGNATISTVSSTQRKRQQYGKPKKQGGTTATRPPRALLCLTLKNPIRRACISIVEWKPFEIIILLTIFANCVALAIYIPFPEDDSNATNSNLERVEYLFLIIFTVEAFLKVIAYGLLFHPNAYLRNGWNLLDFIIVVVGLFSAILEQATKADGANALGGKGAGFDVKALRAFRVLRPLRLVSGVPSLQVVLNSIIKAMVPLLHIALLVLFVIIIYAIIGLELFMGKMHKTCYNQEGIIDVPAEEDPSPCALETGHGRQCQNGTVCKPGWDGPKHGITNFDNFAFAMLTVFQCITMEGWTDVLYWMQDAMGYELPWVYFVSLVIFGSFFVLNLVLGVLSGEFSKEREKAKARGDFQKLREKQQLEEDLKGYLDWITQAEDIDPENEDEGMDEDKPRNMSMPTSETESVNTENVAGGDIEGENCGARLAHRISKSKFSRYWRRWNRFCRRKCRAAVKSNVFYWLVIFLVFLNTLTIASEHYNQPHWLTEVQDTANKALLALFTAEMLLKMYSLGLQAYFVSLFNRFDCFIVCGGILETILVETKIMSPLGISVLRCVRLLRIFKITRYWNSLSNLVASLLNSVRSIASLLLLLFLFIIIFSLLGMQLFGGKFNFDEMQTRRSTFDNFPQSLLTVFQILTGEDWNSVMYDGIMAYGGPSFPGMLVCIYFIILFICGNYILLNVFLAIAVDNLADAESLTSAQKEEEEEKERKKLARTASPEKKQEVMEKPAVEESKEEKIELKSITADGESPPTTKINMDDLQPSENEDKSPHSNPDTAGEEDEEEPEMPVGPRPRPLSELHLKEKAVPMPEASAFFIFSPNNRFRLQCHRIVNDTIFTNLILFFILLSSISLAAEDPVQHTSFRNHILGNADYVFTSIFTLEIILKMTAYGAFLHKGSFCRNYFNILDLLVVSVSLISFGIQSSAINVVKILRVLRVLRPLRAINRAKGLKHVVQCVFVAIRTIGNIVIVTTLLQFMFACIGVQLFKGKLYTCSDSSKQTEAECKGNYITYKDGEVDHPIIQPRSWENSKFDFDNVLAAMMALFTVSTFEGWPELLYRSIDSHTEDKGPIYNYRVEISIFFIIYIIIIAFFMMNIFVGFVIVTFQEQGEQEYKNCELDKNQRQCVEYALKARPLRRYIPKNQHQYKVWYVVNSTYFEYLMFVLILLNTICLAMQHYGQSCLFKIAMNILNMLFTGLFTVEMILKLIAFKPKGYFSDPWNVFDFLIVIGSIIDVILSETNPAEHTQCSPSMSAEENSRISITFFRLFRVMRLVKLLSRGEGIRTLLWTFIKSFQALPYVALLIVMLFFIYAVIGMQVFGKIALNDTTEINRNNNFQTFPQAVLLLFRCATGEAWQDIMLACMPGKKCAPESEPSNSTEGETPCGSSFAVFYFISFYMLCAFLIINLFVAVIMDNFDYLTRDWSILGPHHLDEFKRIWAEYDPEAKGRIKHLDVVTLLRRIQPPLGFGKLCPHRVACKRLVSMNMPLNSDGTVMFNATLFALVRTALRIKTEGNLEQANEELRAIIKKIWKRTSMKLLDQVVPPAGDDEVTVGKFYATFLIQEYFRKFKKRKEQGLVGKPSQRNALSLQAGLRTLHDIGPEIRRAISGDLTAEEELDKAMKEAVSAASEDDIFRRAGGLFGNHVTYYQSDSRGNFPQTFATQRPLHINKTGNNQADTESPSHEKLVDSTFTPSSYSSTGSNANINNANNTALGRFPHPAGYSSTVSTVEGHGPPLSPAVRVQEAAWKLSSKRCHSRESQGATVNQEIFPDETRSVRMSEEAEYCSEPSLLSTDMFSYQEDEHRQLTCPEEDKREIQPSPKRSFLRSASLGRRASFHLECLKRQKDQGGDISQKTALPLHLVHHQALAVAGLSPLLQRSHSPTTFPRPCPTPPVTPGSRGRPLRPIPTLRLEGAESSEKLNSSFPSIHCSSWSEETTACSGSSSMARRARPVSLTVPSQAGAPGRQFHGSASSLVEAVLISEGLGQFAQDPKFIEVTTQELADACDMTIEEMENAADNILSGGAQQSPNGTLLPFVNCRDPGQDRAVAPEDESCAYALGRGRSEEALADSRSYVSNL

Row | SMILES | Activity (Rattus norvegicus [1]) | Activity (Rattus norvegicus [2]) | further results
1 | O=C1NC(=O)C2C1C1c3ccccc3C2([N+](=O)[O-])c2ccccc21 (configuration not stated) | Active | Active | –
2 | O=CC12c3ccccc3C(c3ccccc31)C1C(=O)NC(=O)C12 (configuration not stated) | Active | Active | –
3 | O=C1NC(=O)C2C3c4ccccc4C(c4ccc(Cl)cc43)C12 (configuration not stated) | inactive | – | Activity [3]: Active; pIC50 [4]: 5.25; Activity [5]: 100%; pIC50 [6]: 5.20; Activity [7]: tde; pIC50 [8]: 4.71; Activity [9]: Active; Activity (Rattus norvegicus [10]): inactive; IC50 [11]: 16.5 µM; Activity ([11]; rat): Dose-dependent effect; Activity [12]: Active; Activity [13]: Active
4 | C#CCN1C(=O)C2C3c4ccccc4C(c4ccccc43)C2C1=O (configuration not stated) | Active | Active | –
5 | Cc1ccc2c(c1)C1c3ccccc3C2C2C(=O)NC(=O)C12 (configuration not stated) | Active | Active | Activity [5]: 90%
6 | O=C1NC(=O)C2C1C1c3ccccc3C2(Cl)c2ccccc21 (configuration not stated) | Active | Active | –
7 | N#CC12c3ccccc3C(c3ccccc31)C1C(=O)NC(=O)C12 (configuration not stated) | Active | Active | –
8 | O=C1NC(=O)C2C3c4ccccc4C(c4cccc(Cl)c43)C12 (configuration not stated) | Active | Active | Activity [5]: 90%
9 | O=C1NC(=O)C2C3c4ccccc4C(c4ccccc43)C12 (configuration not stated) | Active | Active | –
10 | COc1ccc(CCN(C)CCCC(C#N)(c2ccc(OC)c(OC)c2)C(C)C)cc1OC (configuration not stated) [VERAPAMIL] | – | – | inhibition (Oryctolagus cuniculus): 100%; pIC50 [14]: 7.22
11 | CC12c3ccccc3C(c3ccccc31)C1C(=O)NC(=O)C12 (configuration not stated) | Active | Active | –
12 | O=C1NC(=O)C2C1C1c3ccccc3C2(CO)c2ccccc21 (configuration not stated) | Active | Active | –
